Data: patent publication US11753407B2, “Compounds for treating spinal muscular atrophy” (PTC Therapeutics, Inc., priority 2012, dated 2023)

Assays:
[1] = system: Smn protein in SMA patient fibroblast cells (GM03813); experiment: Smn protein assay in cultured cells (SMN HTRF); assay type: cell-based, human; conditions: SMA patient fibroblast cells, 48 hours; for maximum fold (Fold) increase of Smn protein: 7-point concentration data, fold relative to vehicle control; for EC1.5x for Smn protein expression: 7-point concentration curve, SMN HTRF, concentration producing 1.5 times Smn protein vs DMSO vehicle control
Summary of the method: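 Cells were cultured 72 h, seeded at 5,000/well and dosed with seven concentrations (3.16-fold apart) for 48 h. HTRF on lysates, read at 665 and 620 nm, gave blank-corrected ΔF values relative to DMSO. Potency is reported as EC1.5×, efficacy as maximal fold Smn increase.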

[2] = system: SMN2 minigene mRNA (SMN2-A minigene) in HEK293H cells; experiment: SMN2 minigene mRNA splicing RT-qPCR assay in cultured cells; assay type: cell-based, human; conditions: Homo sapiens, HEK293-H; concentration increasing full length SMN2 mRNA 1.5-fold relative to vehicle-treated cells; HEK293H cells with SMN2-A minigene, 24 hours, 7-point concentration data; read-out: EC1.5x for production of full length SMN2 mRNA
Summary of the method: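 EC1.5× values derive from a 24 h treatment of SMN2-A minigene HEK293H cells and GAPDH-normalized RT-qPCR of exon 7-included minigene mRNA relative to vehicle-treated cells.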

SMILES	maximum fold (Fold) increase of Smn protein [1]	melting point [°C]	EC (1.5-fold increase) [2] [µM]	EC1.5x for Smn protein expression [1]
COc1ccc(-c2cc(=O)n3cc(N4C[C@H]5CCCN(C)[C@H]5C4)ccc3n2)cc1F [Compound 313, 2-(3-fluoro-4-methoxyphenyl)-7-[(4aR,7aR)-1-methyloctahydro-6H-pyrrolo[3,4-b]pyridin-6-yl]-4H-pyrido[1,2-a]pyrimidin-4-one]	* (A maximum fold increase of ≤1.2 is indicated by one star (*))	223 to 227	1 to 3	–
COc1ccc(-c2cc(=O)n3cc(N4CCN[C@H](C)C4)cc(C)c3n2)cc1OC [Compound 314, 2-(3,4-dimethoxyphenyl)-9-methyl-7-[(3R)-3-methylpiperazin-1-yl]-4H-pyrido[1,2-a]pyrimidin-4-one]	**** (a fold increase between >1.5 and ≤1.65 is indicated by four stars (****))	177 to 184	< 0.1	*** (an EC1.5× between >0.3 μM and ≤1 μM is indicated by three stars (***))
COc1ccc(-c2cc(=O)n3cc(C4=CCN(C)CC4)cc(C)c3n2)cc1F [Compound 315, 2-(3-fluoro-4-methoxyphenyl)-9-methyl-7-(1-methyl-1,2,3,6-tetrahydropyridin-4-yl)-4H-pyrido[1,2-a]pyrimidin-4-one]	*** (a fold increase between >1.35 and ≤1.5 is indicated by three stars (***))	184 to 190	< 0.1	–
COc1ccc(-c2ccc3nc(C4CCNCC4)cc(=O)n3c2)cc1F [Compound 316, 7-(3-fluoro-4-methoxyphenyl)-2-(piperidin-4-yl)-4H-pyrido[1,2-a]pyrimidin-4-one]	***** (a fold increase >1.65 is indicated by five stars (*****))	278 to 281	0.1 to 0.3	** (an EC1.5× between >1 μM and ≤3 μM is indicated by two stars (**))
COc1ccc(-c2ccc3nc(C4CCN(C)CC4)cc(=O)n3c2)cc1F [Compound 317, 7-(3-fluoro-4-methoxyphenyl)-2-(1-methylpiperidin-4-yl)-4H-pyrido[1,2-a]pyrimidin-4-one]	**** (a fold increase between >1.5 and ≤1.65 is indicated by four stars (****))	202 to 205	0.3 to 1	** (an EC1.5× between >1 μM and ≤3 μM is indicated by two stars (**))
CCN1CC=C(c2ccc3nc(-c4cc(F)c5nc(C)oc5c4)cc(=O)n3c2)CC1 [Compound 318, 7-(1-ethyl-1,2,3,6-tetrahydropyridin-4-yl)-2-(4-fluoro-2-methyl-1,3-benzoxazol-6-yl)-4H-pyrido[1,2-a]pyrimidin-4-one]	***** (a fold increase >1.65 is indicated by five stars (*****))	151 to 154	< 0.1	**** (an EC1.5x≤0.3 μM is indicated by four stars (****))
CCCN1CC=C(c2ccc3nc(-c4cc(F)c5nc(C)oc5c4)cc(=O)n3c2)CC1 [Compound 319, 2-(4-fluoro-2-methyl-1,3-benzoxazol-6-yl)-7-(1-propyl-1,2,3,6-tetrahydropyridin-4-yl)-4H-pyrido[1,2-a]pyrimidin-4-one]	**** (a fold increase between >1.5 and ≤1.65 is indicated by four stars (****))	159 to 162	< 0.1	**** (an EC1.5x≤0.3 μM is indicated by four stars (****))
CCN1CCN(c2ccc3cc(-c4ccc5nc(C)oc5c4)cc(=O)n3c2)C[C@@H]1C [Compound 324, 7-[(3S)-4-ethyl-3-methylpiperazin-1-yl]-2-(2-methyl-1,3-benzoxazol-6-yl)-4H-quinolizin-4-one]	*** (a fold increase between >1.35 and ≤1.5 is indicated by three stars (***))	288 to 290	0.3 to 1	–
Cc1nc2ccc(-c3cc(=O)n4cc(N5CCN(C)[C@@H](C)C5)ccc4c3)cc2o1 [Compound 325, 7-[(3S)-3,4-dimethylpiperazin-1-yl]-2-(2-methyl-1,3-benzoxazol-6-yl)-4H-quinolizin-4-one]	*** (a fold increase between >1.35 and ≤1.5 is indicated by three stars (***))	> 300	0.3 to 1	–
Cc1nc2ccc(-c3cc(=O)n4cc(N5CCC(N)CC5)ccc4c3)cc2o1 [Compound 326, 7-(4-aminopiperidin-1-yl)-2-(2-methyl-1,3-benzoxazol-6-yl)-4H-quinolizin-4-one]	*** (a fold increase between >1.35 and ≤1.5 is indicated by three stars (***))	288 to 290	1 to 3	** (an EC1.5× between >1 μM and ≤3 μM is indicated by two stars (**))
COc1ccc(-c2cc(=O)n3cc(N4CCN[C@@H](C)C4)cc(C)c3n2)cc1F [Compound 327, 2-(3-fluoro-4-methoxyphenyl)-9-methyl-7-[(3S)-3-methylpiperazin-1-yl]-4H-pyrido[1,2-a]pyrimidin-4-one]	**** (a fold increase between >1.5 and ≤1.65 is indicated by four stars (****))	198 to 202	< 0.1	**** (an EC1.5x≤0.3 μM is indicated by four stars (****))
COc1ccc(-c2cc(=O)n3cc(N4CCC(N(C)C)CC4)cc(C)c3n2)cc1F [Compound 328, 7-[4-(dimethylamino)piperidin-1-yl]-2-(3-fluoro-4-methoxyphenyl)-9-methyl-4H-pyrido[1,2-a]pyrimidin-4-one]	*** (a fold increase between >1.35 and ≤1.5 is indicated by three stars (***))	141 to 145	< 0.1	–
COc1ccc(-c2cc(=O)n3cc(C4CCN(C)CC4)cc(C)c3n2)cc1F [Compound 329, 2-(3-fluoro-4-methoxyphenyl)-9-methyl-7-(1-methylpiperidin-4-yl)-4H-pyrido[1,2-a]pyrimidin-4-one]	**** (a fold increase between >1.5 and ≤1.65 is indicated by four stars (****))	198 to 203	< 0.1	** (an EC1.5× between >1 μM and ≤3 μM is indicated by two stars (**))
COc1ccc(-c2cc(=O)n3cc(N4CCC(NC5CC5)CC4)cc(C)c3n2)cc1OC [Compound 330, 7-[4-(cyclopropylamino)piperidin-1-yl]-2-(3,4-dimethoxyphenyl)-9-methyl-4H-pyrido[1,2-a]pyrimidin-4-one]	** (a fold increase between >1.2 and ≤1.35 is indicated by two stars (**))	141	0.1 to 0.3	–
Cc1cn2cc(-c3cc(=O)n4cc(N5CCN(C)[C@@H](C)C5)ccc4n3)cc(Cl)c2n1 [Compound 331, 2-(8-chloro-2-methylimidazo[1,2-a]pyridin-6-yl)-7-[(3S)-3,4-dimethylpiperazin-1-yl]-4H-pyrido[1,2-a]pyrimidin-4-one]	***** (a fold increase >1.65 is indicated by five stars (*****))	258 to 262	< 0.1	**** (an EC1.5x≤0.3 μM is indicated by four stars (****))
COc1ccc(-c2cc(=O)n3cc(N4C[C@@H](C)N[C@@H](C)C4)cc(C)c3n2)cc1OC [Compound 332, 2-(3,4-dimethoxyphenyl)-7-[(3R,5S)-3,5-dimethylpiperazin-1-yl]-9-methyl-4H-pyrido[1,2-a]pyrimidin-4-one]	* (A maximum fold increase of ≤1.2 is indicated by one star (*))	225 to 233	0.3 to 1	–
COc1ccc(-c2cc(=O)n3cc(N4CCN(C)[C@H](C)C4)cc(C)c3n2)cc1OC [Compound 333, 2-(3,4-dimethoxyphenyl)-7-[(3R)-3,4-dimethylpiperazin-1-yl]-9-methyl-4H-pyrido[1,2-a]pyrimidin-4-one]	**** (a fold increase between >1.5 and ≤1.65 is indicated by four stars (****))	148	0.1 to 0.3	** (an EC1.5× between >1 μM and ≤3 μM is indicated by two stars (**))
Cc1cn2nc(-c3cc(=O)n4cc(N5CCCN(C)CC5)ccc4n3)cc2c(C)n1 [Compound 334, 2-(4,6-dimethylpyrazolo[1,5-a]pyrazin-2-yl)-7-(4-methyl-1,4-diazepan-1-yl)-4H-pyrido[1,2-a]pyrimidin-4-one]	***** (a fold increase >1.65 is indicated by five stars (*****))	169 to 171	< 0.1	**** (an EC1.5x≤0.3 μM is indicated by four stars (****))
Cc1cn2nc(-c3cc(=O)n4cc(N5CCN6CCC[C@H]6C5)ccc4n3)cc2c(C)n1 [Compound 336, 2-(4,6-dimethylpyrazolo[1,5-a]pyrazin-2-yl)-7-[(8aS)-hexahydropyrrolo[1,2-a]pyrazin-2(1H)-yl]-4H-pyrido[1,2-a]pyrimidin-4-one]	***** (a fold increase >1.65 is indicated by five stars (*****))	215 to 218	0.1 to 0.3	**** (an EC1.5x≤0.3 μM is indicated by four stars (****))
